Test results published in ChEMBL document CHEMBL1201862, “PubChem BioAssay data set” (2004).
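These data come from cells grown in 96-well plates and exposed to compound for 48 hours at five concentrations. GI50 = concentration required for 50% inhibition of growth.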 Active and inactive are the calls of the source. Cut-off read from the data, not from the text of the source: active = GI50 up to about 1.1 µM and inactive = higher. Where a SMILES comes first, the peptide text is derived from it. [ ]: non-standard residue; d: D form. Ac5c = NC1(C(=O)O)CCCC1

Columns and labels:
Assay in all cases: NCI-60 cell line screen, 48 h
M14 = test system: M14
CCRF-CEM = test system: CCRF-CEM
OVCAR-3 = test system: OVCAR-3
OVCAR-8 = test system: OVCAR-8
SF-539 = test system: SF-539
SNB-19 = test system: SNB-19
CAKI-1 = test system: CAKI-1
NCI-H226 = test system: NCI-H226
MCF7 = test system: MCF7
BT-549 = test system: BT-549
NCI-H23 = test system: NCI-H23
HT-29 = test system: HT-29
SF-268 = test system: SF-268
LOX IMVI = test system: LOX IMVI
COLO 205 = test system: COLO 205
HOP-62 = test system: HOP-62
MOLT-4 = test system: MOLT-4
EKVX = test system: EKVX
UACC-62 = test system: UACC-62
U-251 = test system: U-251

Measured: GI50

O=C1c2ccccc2C(=O)c2oc(Br)cc21
inactive: CCRF-CEM 1.95 µM | OVCAR-8 1.38 µM | SNB-19 1.5 µM | CAKI-1 1.76 µM | NCI-H226 1.41 µM | BT-549 1.16 µM | HT-29 1.6 µM | SF-268 1.87 µM | COLO 205 1.92 µM | HOP-62 1.69 µM | MOLT-4 1.8 µM | EKVX 1.94 µM | U-251 1.26 µM
active: M14 0.161 µM | OVCAR-3 1.02 µM | SF-539 0.684 µM | MCF7 0.46 µM | NCI-H23 0.244 µM | LOX IMVI 0.429 µM | UACC-62 0.544 µM

C/C1=C/C2OC(=O)C3(C)C2C(CC2(C)OC1=CC2=O)OC3(O)C(C)C (stereo not given)
inactive: M14 37 µM | CCRF-CEM 23.6 µM | OVCAR-3 31.2 µM | OVCAR-8 29 µM | SF-539 41.4 µM | SNB-19 42.5 µM | CAKI-1 30.5 µM | NCI-H226 33.5 µM | MCF7 43.7 µM | BT-549 5.2 µM | NCI-H23 15 µM | HT-29 28.3 µM | SF-268 38.9 µM | LOX IMVI 31.4 µM | COLO 205 36.6 µM | HOP-62 41.6 µM | MOLT-4 29.4 µM | EKVX 47.6 µM | UACC-62 20.6 µM | U-251 23.9 µM

NC1(C(=O)NC2(C(=O)O)CCCC2)CCCC1 (H-[Ac5c]-[Ac5c]-OH)
inactive: M14 > 100 µM | CCRF-CEM > 100 µM | OVCAR-3 > 100 µM | OVCAR-8 > 100 µM | SF-539 > 100 µM | SNB-19 > 100 µM | CAKI-1 > 100 µM | NCI-H226 > 100 µM | MCF7 > 100 µM | BT-549 > 100 µM | NCI-H23 > 100 µM | HT-29 > 100 µM | SF-268 > 100 µM | LOX IMVI > 100 µM | COLO 205 > 100 µM | HOP-62 > 100 µM | MOLT-4 > 100 µM | EKVX > 100 µM | UACC-62 > 100 µM | U-251 > 100 µM

O=C1Cc2c([nH]c3ccc([N+](=O)[O-])cc23)-c2ccccc2N1 [ALSTERPAULLONE]
active: M14 0.453 µM | CCRF-CEM 0.118 µM | OVCAR-3 0.158 µM | OVCAR-8 0.446 µM | SF-539 0.397 µM | SNB-19 0.478 µM | CAKI-1 0.332 µM | NCI-H226 0.275 µM | MCF7 0.508 µM | BT-549 1.08 µM | NCI-H23 0.557 µM | HT-29 0.389 µM | SF-268 0.471 µM | LOX IMVI 0.181 µM | COLO 205 0.235 µM | HOP-62 0.279 µM | MOLT-4 0.312 µM | EKVX 0.652 µM | UACC-62 0.94 µM | U-251 0.471 µM

CCCC[C@H]1C(=O)O[C@H](C)[C@H](NC(=O)c2cccc(NC=O)c2O)C(=O)O[C@@H](C)[C@@H]1OC(=O)CC(C)C [ANTIMYCIN A3]
active: CCRF-CEM < 0.0229 µM | NCI-H226 0.883 µM | MCF7 0.0442 µM | NCI-H23 0.294 µM | LOX IMVI < 0.01 µM | MOLT-4 < 0.01 µM | EKVX 0.321 µM | UACC-62 0.16 µM | U-251 0.149 µM
inactive: M14 14.9 µM | OVCAR-3 2.38 µM | OVCAR-8 2.05 µM | SF-539 12.8 µM | SNB-19 2.91 µM | CAKI-1 11.9 µM | BT-549 1.68 µM | HT-29 1.6 µM | SF-268 6.56 µM | COLO 205 3.34 µM | HOP-62 8.41 µM

C[C@H](CCC(=O)O)[C@H]1CC[C@H]2[C@@H]3CC[C@@H]4C[C@H](O)CC[C@]4(C)[C@H]3C[C@H](O)[C@]12C [DEOXYCHOLIC ACID]
inactive: M14 34.3 µM | CCRF-CEM 23.9 µM | OVCAR-3 20.4 µM | OVCAR-8 39.4 µM | SF-539 48 µM | SNB-19 40.1 µM | CAKI-1 69.5 µM | NCI-H226 95.1 µM | MCF7 36.2 µM | BT-549 48.4 µM | NCI-H23 39.7 µM | HT-29 34.1 µM | SF-268 40.1 µM | LOX IMVI 40.8 µM | COLO 205 27.9 µM | HOP-62 26.4 µM | MOLT-4 26.5 µM | EKVX 31.4 µM | UACC-62 37.5 µM | U-251 30.7 µM
